Data taken from ChEMBL document CHEMBL4420076, “Amylin and calcitonin receptor agonist” (2017).
Numbered stars: 1 amine (or outer) side, 2 acyl side, 3 side chain; on linkers, the order of the positions; unused ones are H or OH. Peptide text beside a SMILES is read from it. * marks the point of attachment. C20 diacid = O=C(O)CCCCCCCCCCCCCCCCCCC(=O)*; C18 diacid = O=C(O)CCCCCCCCCCCCCCCCC(=O)*; γGlu = O=C(O)[C@H](CCC(=O)[*:2])N[*:1]

Assays:
[1] = Solubility in 100 mM glycylglycine buffer at pH 4.0 incubated for 18 hrs by UPLC analysis; format: physicochemical
[2] = Solubility in 100 mM glycylglycine buffer at pH 5.0 incubated for 18 hrs by UPLC analysis; format: physicochemical
[3] = Solubility in 100 mM bistrispropane buffer at pH 7.0 incubated for 18 hrs by UPLC analysis; format: physicochemical
[4] = Stability in pH 7.5 buffer assessed as lag time for fibril formation at 1 uM by Thioflavin T based fluorescence assay; format: physicochemical; conditions: pH 7.5, 1 µM
[5] = Solubility in 100 mM glycylglycine buffer at pH 3.0 incubated for 18 hrs by UPLC analysis; format: physicochemical
[6] = Solubility in 100 mM bistrispropane buffer at pH 8.0 incubated for 18 hrs by UPLC analysis; format: physicochemical
[7] = Solubility in 100 mM bistrispropane buffer at pH 6.5 incubated for 18 hrs by UPLC analysis; format: physicochemical
[8] = Solubility in 100 mM bistrispropane buffer at pH 7.5 incubated for 18 hrs by UPLC analysis; format: physicochemical
[9] = Solubility in 100 mM bistrispropane buffer at pH 6.0 incubated for 18 hrs by UPLC analysis; format: physicochemical
[10] = Stability in pH 7.5 buffer assessed as compound recovery at 1 uM by Thioflavin T based fluorescence assay; format: physicochemical; conditions: read-out: Drug recovery
[11] = molecular target: T1, Amylin receptor AMY3; CALCR/RAMP3 (Homo sapiens, UniProt O60896+P30988); assay: Displacement of [125I]-labeled rat amylin from human amylin receptor expressed in BHK tkts13 whole cells co-expressing RAMP3 incubated for 60 mins by scintillation proximity assay; format: cell-based
T1 sequence (P30988 whole entry): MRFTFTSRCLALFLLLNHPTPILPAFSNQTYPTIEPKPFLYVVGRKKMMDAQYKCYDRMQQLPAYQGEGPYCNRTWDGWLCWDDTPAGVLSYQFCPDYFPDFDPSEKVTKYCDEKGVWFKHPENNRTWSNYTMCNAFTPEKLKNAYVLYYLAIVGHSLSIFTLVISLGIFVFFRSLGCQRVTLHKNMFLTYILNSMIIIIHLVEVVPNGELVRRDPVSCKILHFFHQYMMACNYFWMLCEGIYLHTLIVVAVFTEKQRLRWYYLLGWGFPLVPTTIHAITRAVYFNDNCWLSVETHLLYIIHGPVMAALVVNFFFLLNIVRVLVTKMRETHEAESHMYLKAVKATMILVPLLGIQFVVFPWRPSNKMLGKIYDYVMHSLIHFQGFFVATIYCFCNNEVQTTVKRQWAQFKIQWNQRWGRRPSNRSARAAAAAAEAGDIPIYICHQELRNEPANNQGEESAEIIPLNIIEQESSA
T1 sequence (O60896 whole entry): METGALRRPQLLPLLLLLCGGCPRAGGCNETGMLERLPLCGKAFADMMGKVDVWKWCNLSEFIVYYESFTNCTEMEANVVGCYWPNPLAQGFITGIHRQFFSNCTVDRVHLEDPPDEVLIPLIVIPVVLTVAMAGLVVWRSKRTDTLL

[12] = tested on: Rattus norvegicus; assay: Reduction in food intake in Sprague-Dawley rat at 3 nmol/kg measured 24 to 48 hrs post dose relative to control; format: functional; set-up: scale not given: the % may be the effect or the level left
[13] = tested on: Rattus norvegicus; assay: Reduction in food intake in Sprague-Dawley rat at 3 nmol/kg measured 0 to 24 hrs post dose relative to control; format: functional; set-up: scale not given: the % may be the effect or the level left
[14] = molecular target: T1, Amylin receptor AMY3; CALCR/RAMP3; assay: Agonist activity at human amylin receptor expressed in BHK570 cells co-expressing RAMP3 assessed as increase in intracellular cAMP concentration incubated for 3 hrs in absence of albumin by CRE luciferase reporter gene assay; format: functional, cell-based
[15] = molecular target: T1, Amylin receptor AMY3; CALCR/RAMP3; assay: Agonist activity at human amylin receptor expressed in BHK570 cells co-expressing RAMP3 assessed as increase in intracellular cAMP concentration incubated for 3 hrs in presence of 10% FBS by CRE luciferase reporter gene assay; format: functional, cell-based
[16] = molecular target: T2, Calcitonin receptor (Homo sapiens, UniProt P30988); assay: Agonist activity at human calcitonin receptor expressed in BHK570 cells assessed as increase in intracellular cAMP concentration incubated for 3 hrs in presence of 10% FBS by CRE luciferase reporter gene assay; format: functional, cell-based
T2 sequence (P30988 whole entry): T1 sequence (P30988 whole entry)

[17] = molecular target: T2, Calcitonin receptor; assay: Agonist activity at human calcitonin receptor expressed in BHK570 cells assessed as increase in intracellular cAMP concentration incubated for 3 hrs in absence of albumin by CRE luciferase reporter gene assay; format: functional, cell-based

CC(C)C[C@H](NC(=O)[C@H](C)NC(=O)[C@H](C)NC(=O)[C@@H](NC(=O)[C@H](CO)NC(=O)[C@H](CC(C)C)NC(=O)[C@H](CCC(=O)O)NC(=O)[C@H](CO)NC(=O)[C@H](C)N)[C@@H](C)O)C(=O)NCC(=O)N[C@@H](CCCNC(=N)N)C(=O)N[C@@H](CC(C)C)C(=O)N[C@@H](CO)C(=O)N[C@@H](C)C(=O)N[C@@H](CCC(=O)O)C(=O)N[C@@H](CC(C)C)C(=O)N[C@@H](Cc1cnc[nH]1)C(=O)N[C@@H](CCC(=O)O)C(=O)N[C@@H](CC(C)C)C(=O)N[C@@H](C)C(=O)N[C@H](C(=O)N[C@@H](CC(C)C)C(=O)N1CCC[C@H]1C(=O)N[C@@H](CCCNC(=N)N)C(=O)N[C@H](C(=O)N[C@@H](CCCCNC(=O)CC[C@H](NC(=O)CCCCCCCCCCCCCCCCCCC(=O)O)C(=O)O)C(=O)N[C@H](C(=O)NCC(=O)N[C@@H](CO)C(=O)NCC(=O)N[C@@H](CO)C(=O)N1CCC[C@H]1C(N)=O)[C@@H](C)O)[C@@H](C)O)[C@@H](C)O
solubility at 18 h [1]: ≥ 200 µM | solubility at 18 h [2]: ≥ 200 µM | solubility at 18 h [3]: ≥ 200 µM | Time [4]: > 45 h | solubility at 18 h [5]: ≥ 200 µM | solubility at 18 h [6]: ≥ 200 µM | solubility at 18 h [7]: ≥ 200 µM | solubility at 18 h [8]: ≥ 200 µM | solubility at 18 h [9]: ≥ 200 µM | remaining at 1 µM [10]: 94%

CC(C)C[C@H](NC(=O)[C@H](C)NC(=O)[C@H](C)NC(=O)[C@@H](NC(=O)[C@H](CO)NC(=O)[C@H](CC(C)C)NC(=O)[C@H](CCC(=O)O)NC(=O)[C@H](CO)NC(=O)[C@H](C)NC(=O)CC[C@H](NC(=O)CCCCCCCCCCCCCCCCC(=O)O)C(=O)O)[C@@H](C)O)C(=O)NCC(=O)N[C@@H](CCCNC(=N)N)C(=O)N[C@@H](CC(C)C)C(=O)N[C@@H](CO)C(=O)N[C@@H](C)C(=O)N[C@@H](CCC(=O)O)C(=O)N[C@@H](CC(C)C)C(=O)N[C@@H](Cc1c[nH]cn1)C(=O)N[C@@H](CCC(=O)O)C(=O)N[C@@H](CC(C)C)C(=O)N[C@@H](C)C(=O)N[C@H](C(=O)N[C@@H](Cc1ccc(O)cc1)C(=O)N1CCC[C@H]1C(=O)N[C@@H](CCCNC(=N)N)C(=O)N[C@H](C(=O)N[C@@H](CCC(=O)O)C(=O)N[C@H](C(=O)NCC(=O)N[C@@H](CO)C(=O)NCC(=O)N[C@@H](CO)C(=O)N1CCC[C@H]1C(N)=O)[C@@H](C)O)[C@@H](C)O)[C@@H](C)O ({C18 diacid-γGlu}-ASELSTAALGRLSAELHELATYPRTETGSGSP-NH2)
Time [4]: > 45 h | remaining at 1 µM [10]: 100%

CC(C)C[C@H](NC(=O)[C@H](C)NC(=O)[C@H](C)NC(=O)[C@@H](NC(=O)[C@H](CO)NC(=O)[C@H](CC(C)C)NC(=O)[C@H](CCC(=O)O)NC(=O)[C@H](CO)NC(=O)[C@H](C)NC(=O)[C@H](CCC(=O)O)NC(=O)CCCCCCCCCCCCCCCCC(=O)O)[C@@H](C)O)C(=O)NCC(=O)N[C@@H](CCCNC(=N)N)C(=O)N[C@@H](CC(C)C)C(=O)N[C@@H](CO)C(=O)N[C@@H](C)C(=O)N[C@@H](CCC(=O)O)C(=O)N[C@@H](CC(C)C)C(=O)N[C@@H](Cc1cnc[nH]1)C(=O)N[C@@H](CCC(=O)O)C(=O)N[C@@H](CC(C)C)C(=O)N[C@@H](C)C(=O)N[C@H](C(=O)N[C@@H](CC(C)C)C(=O)N1CCC[C@H]1C(=O)N[C@@H](CCCNC(=N)N)C(=O)N[C@H](C(=O)N[C@@H](CCC(=O)O)C(=O)N[C@H](C(=O)NCC(=O)N[C@@H](CO)C(=O)NCC(=O)N[C@@H](CO)C(=O)N1CCC[C@H]1C(N)=O)[C@@H](C)O)[C@@H](C)O)[C@@H](C)O ({C18 diacid}-EASELSTAALGRLSAELHELATLPRTETGSGSP-NH2)
IC50 [11]: 0.187 nM | solubility at 18 h [1]: ≥ 200 µM | Activity [12]: 46% | solubility at 18 h [2]: ≥ 200 µM | solubility at 18 h [3]: ≥ 200 µM | Activity [13]: 71% | solubility at 18 h [5]: ≥ 200 µM | solubility at 18 h [6]: ≥ 200 µM | solubility at 18 h [7]: ≥ 200 µM | solubility at 18 h [8]: ≥ 200 µM | EC50 [14]: 0.009 nM | solubility at 18 h [9]: ≥ 200 µM | EC50 [15]: 0.039 nM | EC50 [16]: 0.019 nM | EC50 [17]: 0.006 nM

CC(C)C[C@H](NC(=O)[C@H](CO)NC(=O)CNC(=O)[C@H](CO)NC(=O)CNC(=O)[C@@H](NC(=O)[C@H](CCC(=O)O)NC(=O)[C@@H](NC(=O)[C@H](CCCNC(=N)N)NC(=O)[C@@H]1CCCN1C(=O)[C@H](CC(C)C)NC(=O)[C@@H](NC(=O)[C@H](C)NC(=O)[C@H](CC(C)C)NC(=O)[C@H](CCC(=O)O)NC(=O)[C@H](Cc1cnc[nH]1)NC(=O)[C@H](CC(C)C)NC(=O)[C@H](CCC(=O)O)NC(=O)[C@H](C)NC(=O)[C@H](CO)NC(=O)[C@H](CC(C)C)NC(=O)[C@H](CCCNC(=N)N)NC(=O)CNC(=O)[C@H](CC(C)C)NC(=O)[C@H](C)NC(=O)[C@H](C)NC(=O)[C@@H](NC(=O)[C@H](CO)NC(=O)[C@H](CC(C)C)NC(=O)[C@H](CCC(=O)O)NC(=O)[C@H](CO)NC(=O)[C@H](C)NC(=O)CC[C@H](NC(=O)CCCCCCCCCCCCCCCCCCC(=O)O)C(=O)O)[C@@H](C)O)[C@@H](C)O)[C@@H](C)O)[C@@H](C)O)C(N)=O ({C20 diacid-γGlu}-ASELSTAALGRLSAELHELATLPRTETGSGSL-NH2)
IC50 [11]: 3.05 nM | solubility at 18 h [1]: ≥ 200 µM | solubility at 18 h [2]: ≥ 200 µM | solubility at 18 h [3]: ≥ 200 µM | Time [4]: > 45 h | solubility at 18 h [5]: ≥ 200 µM | solubility at 18 h [6]: ≥ 200 µM | solubility at 18 h [7]: ≥ 200 µM | solubility at 18 h [8]: ≥ 200 µM | solubility at 18 h [9]: ≥ 200 µM | remaining at 1 µM [10]: 100% | EC50 [17]: 0.031 nM

CC(C)C[C@H](NC(=O)[C@H](C)NC(=O)[C@H](C)NC(=O)[C@@H](NC(=O)[C@H](CO)NC(=O)[C@H](CC(C)C)NC(=O)[C@H](CCC(=O)O)NC(=O)[C@H](CO)NC(=O)[C@H](C)NC(=O)[C@H](CCC(=O)O)NC(=O)CCCCCCCCCCCCCCCCCCC(=O)O)[C@@H](C)O)C(=O)NCC(=O)N[C@@H](CCCNC(=N)N)C(=O)N[C@@H](CC(C)C)C(=O)N[C@@H](CO)C(=O)N[C@@H](C)C(=O)N[C@@H](CCC(=O)O)C(=O)N[C@@H](CC(C)C)C(=O)N[C@@H](Cc1cnc[nH]1)C(=O)N[C@@H](CCC(=O)O)C(=O)N[C@@H](CC(C)C)C(=O)N[C@@H](C)C(=O)N[C@H](C(=O)N[C@@H](CC(C)C)C(=O)N1CCC[C@H]1C(=O)N[C@@H](CCCNC(=N)N)C(=O)N[C@H](C(=O)N[C@@H](CCC(=O)O)C(=O)N[C@H](C(=O)NCC(=O)N[C@@H](CO)C(=O)NCC(=O)N[C@@H](CO)C(=O)N1CCC[C@H]1C(N)=O)[C@@H](C)O)[C@@H](C)O)[C@@H](C)O ({C20 diacid}-EASELSTAALGRLSAELHELATLPRTETGSGSP-NH2)
IC50 [11]: 0.24 nM | solubility at 18 h [1]: ≥ 200 µM | Activity [12]: 63.5% | solubility at 18 h [2]: ≥ 200 µM | solubility at 18 h [3]: ≥ 200 µM | Activity [13]: 55.5% | solubility at 18 h [5]: ≥ 200 µM | solubility at 18 h [6]: ≥ 200 µM | solubility at 18 h [7]: ≥ 200 µM | solubility at 18 h [8]: ≥ 200 µM | EC50 [14]: 0.011 nM | solubility at 18 h [9]: ≥ 200 µM | EC50 [15]: 0.061 nM | EC50 [16]: 0.026 nM | EC50 [17]: 0.009 nM
